Values of other authors in article PMC6966182 (CPT: Pharmacometrics & Systems Pharmacology, 2019).
Like-named read-outs stand apart in the source and are kept apart here.

How the values were obtained:
HIV = settings: TFV‐DP concentration in PBMC
OAT3 = settings: read-out: OAT3 Transporter (K i) (renal); SimCYP input
[1] = not given; remark: listed apart in the source
[2] = not given; remark: listed apart in the source
PBMC = settings: SimCYP input
[3] = absorption rate constant, SimCYP input
[4] = not given; remark: listed apart in the source
[5] = not given; remark: listed apart in the source
[6] = SD TFV + PRO, healthy volunteers, GM (95% confidence interval)
[7] = SD TFV–PRO, healthy volunteers, GM (95% confidence interval)

For `CC(Cn1cnc2c(N)ncnc21)OCP(=O)(O)OP(=O)(O)OP(=O)(O)O` (stereo in doubt) [TFV‐DP, tenofovir di‐phosphate], the EC90 (HIV) is given as 16 fmol/10^6 cells, the “increase at the intracellular level with PRO” value (at 24 hours) is given as ~ 30% and the “accumulation of TFV‐DP in PBMCs” value (daily TDF administration) is given as “greater than eightfold”.

In the case of `CCCN(CCC)S(=O)(=O)c1ccc(C(=O)O)cc1` [PRO, probenecid], the Ki (OAT3) is given as […] and the maximum tolerated dose [1] is given as 2 g.

In the case of `C[C@H](Cn1cnc2c(N)ncnc21)OCP(=O)(O)O` [TFV, tenofovir], the “AUC0‐INF OBS” value [2, 6] is given as 6,349 (5,598–7,200) ng • hour/mL, the “Cmax OBS” value [2, 6] is given as 538 (494–585) ng/mL and the “AUC0‐INF OBS” value [2, 7] is given as 3,973 (3,576–4,415) ng • hour/mL. The “CLr OBS” value [2, 7] was 15.4 (12.2–19.4) L/hour, the “Cmax OBS” value [2, 7] was 529 (451–620) ng/mL and the “increase in single‐dose TFV overall plasma exposure (AUC0‐INF)” value ([2]; in the presence of 2 g PRO, fasted healthy volunteers, as predicted) was 60%. The “change in TFV Cmax” value ([2]; in the presence of 2 g PRO, single dose, as predicted) was “nearly unchanged”, the “Efflux Clint,t (PBMC additional organ)” value (PBMC) was 1.288 µL/minute11, 12 and the “Uptake J max (PBMC additional organ)” value (PBMC) was 10.44 pmol/minute/whole organ11, 12. For the same molecule, the “Uptake K m (PBMC additional organ)” value (PBMC) was 0.355 µM11, 12, the k a [3] was 1.03 1/h11 and the “TFV in circulation available for transporter‐mediated secretion” value [4] was 20–30%. For the same molecule, the bioavailability [4] was ~ 25%, the “increase in TFV systemic exposure with food” value ([4]; TDF given with high‐fat or light meals, ref Other studies) was ~ 35% and the “fraction unbound (f u)” value [5] was > 0.9.
